Source: patent US20150337056A1, “Method for Immediately Terminating Radical Polymerizations, Inhibitor Solution, and Use Thereof” (Allessa GmbH, priority 2013, published 2015)

Columns and labels:
[1] = solutions in N-alkylpyrrolidones (N-methylpyrrolidone, N-ethylpyrrolidone); cited from earlier work
[2] = Solubility and low-temperature stability of inhibitors in (poly)alkylene glycols
[3] = Solubility of phenothiazine in conventional organic solvents; type: physicochemical
Text: Only in the N-methylpyrrolidone already mentioned and in the chemically and toxicologically related dimethylformamide could concentrated solutions of 30 percent by weight or more be prepared.
Tetrahydrofuran and acetone could also be identified as good solvents. Unfortunately these solvents have low boiling points and flashpoints which renders transport, storage and handling of the solutions more difficult.

| Compound | low temperature down to which solutions are stable [1] [°C] | temperature dependence of solubility ([2]; in (poly)alkylene glycols, between −20° C. and +20° C., FIG. 1) | solubility in poly(alkylene) glycol(s) ([2]; in poly(alkylene) glycol(s)) | temperature down to which stable solutions are formed ([2]; in poly(alkylene) glycol(s)) [°C] | concentrated solutions that could be prepared ([3]; in N-methylpyrrolidone and in dimethylformamide) [percent by weight] | solubility ([3]; in methanol, ethanol, isopropanol, toluene, cyclohexane or n-hexane) | solvent quality for phenothiazine ([3]; tetrahydrofuran and acetone) |
| --- | --- | --- | --- | --- | --- | --- | --- |
| COc1ccc(O)cc1 [MEHQ, hydroquinone monomethyl ether] | −11 | – | – | – | – | – | – |
| c1ccc2c(c1)Nc1ccccc1S2 [phenothiazine] | −11 | virtually independent of the temperature | readily soluble | −25 | ≥ 30 | 2-3 percent by weight | good solvents |
